Several values for one entry are separate records, joined by “and”; a condition that tells them apart may be missing. Equal entries are not always repeated.
Tests used:
[1] = system: carrageenan-induced rat paw edema; assay: carrageenan-induced rat paw edema test; format: in vivo; parameters: Mean increase in edema weight ± SEM: unit not given here; details: rats, 10 mg/kg intraperitoneally, 4 h after carrageenan; for inhibition in vivo at 10 mg/kg / change in vivo at 10 mg/kg: Rattus norvegicus, ip; for inhibition in vivo at 10 mg/kg: 4 h, read-out: %Inhibition of Paw edema from control group (edema reduction); for change in vivo at 10 mg/kg / Mean increase in edema weight ± SEM: N = 6; for change in vivo at 10 mg/kg: read-out: Mean % increase in edema weight ± SEM; for % Activity relative to indomethacine: indomethacin = 100
Method: The in vivo anti-inflammatory effects of the newly synthesized pyrazolopyrimidine derivatives were assessed by utilizing the functional model of carrageenan-induced rat paw edema using indomethacin as the reference drug. Mean changes and the percent increase in paw edema weight of animals pretreated with the tested compounds after 4 h from the induction of inflammation were measured, together with the percent inhibition of induced rat paw edema by the tested compounds. The anti-inflammatory activity (relative potency) of the tested compounds relative to that of indomethacin was also calculated (Table 1) (Fig. 2).
The in vivo carrageenan-induced rat paw edema model of inflammation was used to evaluate the anti-inflammatory properties of the newly synthesized compounds according to the previously reported Winter et al. method.
Adult male albino rats weighing 100–120 g (obtained from the animal house of the department of Physiology, Faculty of Medicine, Alexandria University) were used throughout the work. Animals were randomly divided into groups of six rats each. They were kept in an animal house under standard conditions of light and temperature with free access to food and water ad libitum and allowed to be accustomed to their environment for two days before testing.
Indomethacin, used as a reference standard (Khahira for Pharmaceutical and Chemical Industry, Cairo, Egypt), and the test compounds were dissolved in DMSO and were injected intraperitoneally at a dose level of 10 mg/kg body weight. Control animals, on the other hand, were intraperitoneally injected with appropriate volume of DMSO only. After one hour of the above treatment, an inflammatory edema in the right hind paw of all animals was induced by subcutaneous injection of 0.05 ml of freshly prepared solution of 1% carrageenan (λ-Carrageenan Sigma–Aldrich Corp. St. Louis, MO, USA) in sterile normal saline (0.9%), into the subplantar tissue of the paw. An equal volume of saline was injected to the left hind paw and served as internal control for the degree of inflammation in the right hind paw.
Four hours after carrageenan injection, animals were decapitated and both the right and left hind paws were excised at a standard point and weighed. The difference in weight from edema between right and left paws was taken as a measure of the degree of inflammation for each animal. The mean increase in weight of the carrageenan-injected paw over the other paw in each group was measured and the percent increase of edema was calculated. The anti-inflammatory efficacy of the tested compounds was assessed by comparing the change in paw weight in the treated animals with that in control animals (treated with DMSO only) and expressed as a percent inhibition of the edema (percent protection against inflammation), calculated according to the following equation: % Inhibition of edema=(1-Wt/Wc)×100 where Wt is the mean increase in paw weight in rats treated with the test compounds and Wc is the mean increase in paw weight in the control group. The anti-inflammatory activity of the test compounds relative to that of indomethacin was also determined (Table 2).
In the anti-inflammatory study, data obtained were expressed as the mean ± standard error (SEM). Statistical significance was determined by comparing the values of the test compounds and the standard with those obtained from the control group of animals using One-way ANOVA with Dunnett’s post-test using the GraphPad Prism version 3.00 for Windows (GraphPad Software, San Diego California USA, www.graphpad.com). The difference in results was considered significant if P < 0.001.

[2] = system: gastric mucosa of rats; assay: gastric ulcerogenic effect (Meshali's method, ulcer index by Robert's method); format: in vivo, rat; parameters: key to Ulcer index: ulcer index = %incidence/10 + avg no. of ulcers + avg severity (0–4); details: for % ulceration in the population of test animals: oral 10 mg/kg; for Average No. of ulcer / % Incidence/10 / % Ulcerogenicity relative to indomethacin / Average severity / Ulcer index: oral 10 mg/kg on three days; for % Incidence/10: 5 animals per group; for % Ulcerogenicity relative to indomethacin: indomethacin = 100, 10 mg/kg; for Average severity: score 0 to 4; for Ulcer index: sum of the 3 figures
Method: The ulcer index was calculated according to Robert’s method.
Adult male albino rats weighing between 100 and 120 g were used. Animals were divided into groups of five animals each. Rats were fasted 20 h before drug administration. Water was given ad libitum. The control group received the vehicle (1% gum acacia) orally. Other groups received indomethacin or test compounds orally in a dose of 10 mg/kg body weight suspended in 1% gum acacia. Rats were fasted for 2 h, allowed to feed for 2 h, then fasted for another 20 h. Rats were given another two doses on the second and third days. On the fourth day, rats were sacrificed by diethyl ether; the stomach of each rat was removed, opened along the greater curvature, and rinsed with cold 0.9% saline. The stomach was stretched, by pins, on a corkboard and inspected with a 3x magnifying lens for any evidence of mucosal damage. The ulcer index was calculated according to Robert’s method. The number of mucosal damage (red spots) was counted and their severity (ulcerogenic severity) was graded from 0 to 4 according to the following score assignment:
The following figures were calculated: • –– % Incidence/10 = [number of rats showing ulcer of any grade divided by total number of rats in the group × 100]/10. • –– Average number of ulcers: number of ulcers in the group/total number of rats in the group. • –– Average severity: Σ [each ulcer multiplied by its score of severity]/number of ulcers in the group. • Ulcer index = the sum of the 3 figures. • Results are tabulated in Table 2.

[3] = biological target: cyclooxygenase-2; parameters: method as in PMID 15044055; details: intact cell assays; cited from earlier work
[4] = biological target: cyclooxygenase-1; parameters: method as in PMID 15044055; details: intact cell assays; cited from earlier work

Row | melting point | SMILES | inhibition in vivo at 10 mg/kg [1] | change in vivo at 10 mg/kg [1] | Mean increase in edema weight ± SEM [1] | % Activity relative to indomethacine [1] | % ulceration in the population of test animals [2] | Average No. of ulcer [2] | % Incidence/10 [2] | % Ulcerogenicity relative to indomethacin [2] | Average severity [2] | Ulcer index [2] | IC50 [3] | IC50 [4]
1 | 258 to 259 °C | Cc1nc2c(cnn2-c2ccccc2)c(=O)n1N=c1scc(-c2ccc(Cl)cc2)n1-c1ccccc1 [Compound 11c, 5-{[4-(4-Chlorophenyl)-3-phenyl-1,3-thiazol-2(3H)-ylidene]amino}-6-methyl-1-phenyl-1,5-dihydro-4H-pyrazolo[3,4-d]pyrimidin-4-one] | 54.1% | 10.8 ± 0.457% | 0.72 ± 0.031 | 79.44% | 40–60% | 1.6 | 6 | 53.47% | 1.63 | 9.23 |  | 
2 | 264 to 267 °C | Cc1nc2c(cnn2-c2ccccc2)c(=O)n1N=C1SCC(=O)N1c1ccc(Cl)cc1 [Compound 10b, 5-{[3-(4-Chlorophenyl)-4-oxo-1,3-thiazolidin-2-ylidene]amino}-6-methyl-1-phenyl-1,5-dihydro-4H-pyrazolo[3,4-d]pyrimidin-4-one] | 58.6% | 8.31 ± 0.43% | 0.65 ± 0.022 | 85.99% | 40–60% | 0.8 | 6 | 46.63% | 1.25 | 8.05 |  | 
3 | 272 to 275 °C | Cc1nc2c(cnn2-c2ccccc2)c(=O)n1N=c1scc(-c2ccc(Cl)cc2)n1-c1ccc(Cl)cc1 [Compound 11f, 5-{[3,4-Bis(4-chlorophenyl)-1,3-thiazol-2(3H)-ylidene]amino}-6-methyl-1-phenyl-1,5-dihydro-4H-pyrazolo[3,4-d]pyrimidin-4-one] | 65% | 9.29 ± 0.961% | 0.55 ± 0.043 | 95.33% | 40–60% | 1.6 | 4 | 41.13% | 1.5 | 7.10 |  | 
4 |  | CN(C)c1nc(NCc2ccccc2)c2cnn(C(C)(C)C)c2n1 [II] |  |  |  |  |  |  |  |  |  |  | 0.9 nM | 59.6 nM
5 | 261 to 263 °C | Cc1nc2c(cnn2-c2ccccc2)c(=O)n1N=c1scc(-c2ccc(Br)cc2)n1-c1ccc(Cl)cc1 [Compound 11e, 5-{[4-(4-Bromophenyl)-3-(4-chlorophenyl)-1,3-thiazol-2(3H)-ylidene]amino}-6-methyl-1-phenyl-1,5-dihydro-4H-pyrazolo[3,4-d]pyrimidin-4-one] | 66.9% | 8.74 ± 0.929% | 0.52 ± 0.031 | 98.14% | 20% | 0.8 | 2 | 26% and 26.36% | 1.75 | 4.55 |  | 
6 | 258 to 260 °C | Cc1nc2c(cnn2-c2ccccc2)c(=O)n1N=c1scc(-c2ccccc2)n1-c1ccccc1 [Compound 11a, 5-[(3,4-Diphenyl-1,3-thiazol-2(3H)-ylidene)amino]-6-methyl-1-phenyl-1,5-dihydro-4H-pyrazolo[3,4-d]pyrimidin-4-one] | 53.5% | 10.5 ± 0.468% | 0.73 ± 0.021 | 78.50% | 40–60% | 1.6 | 6 | 52.02% | 1.38 | 8.98 |  | 
7 | 248 to 252 °C | Cc1nc2c(cnn2-c2ccccc2)c(=O)n1N=c1scc(-c2ccc(Br)cc2)n1-c1ccccc1 [Compound 11b, 5-{[4-(4-Bromophenyl)-3-phenyl-1,3-thiazol-2(3H)-ylidene]amino}-6-methyl-1-phenyl-1,5-dihydro-4H-pyrazolo[3,4-d]pyrimidin-4-one] | 57.3% | 8.42 ± 0.482% | 0.67 ± 0.049 | 84.11% | 80% | 1.2 | 8 |  | 1.33 | 10.53 |  | 
8 | 157 to 160 °C | Cc1nc2c(cnn2-c2ccccc2)c(=O)n1NC(=S)Nc1ccc(Cl)cc1 [Compound 9b, 1-(4-Chlorophenyl)-3-(6-methyl-4-oxo-1-phenyl-1,4-dihydro-5H-pyrazolo[3,4-d]pyrimidin-5-yl)thiourea] | 47.8% | 15.7 ± 1.03% | 0.82 ± 0.048 | 70.10% |  |  |  |  |  |  |  | 
9 | 267 to 269 °C | Cc1nc2c(cnn2-c2ccccc2)c(=O)n1N=c1scc(-c2ccccc2)n1-c1ccc(Cl)cc1 [Compound 11d, 5-{[3-(4-Chlorophenyl)-4-phenyl-1,3-thiazol-2(3H)-ylidene]amino}-6-methyl-1-phenyl-1,5-dihydro-4H-pyrazolo[3,4-d]pyrimidin-4-one] | 56.7% | 8.73 ± 0.868% | 0.68 ± 0.065 | 83.18% | 80% | 1.0 | 8 | 59.09% | 1.20 | 10.20 |  | 
